Laboratory results as given in PMC6891286, “Towards the Development of an In vivo Chemical Probe for Cyclin G Associated Kinase (GAK)” (Molecules, 2019).

What was measured:
Assay in all cases: KINOMEscan
Type in all cases: binding
PFTAIRE2 = biological target: T1, PFTAIRE2 (Homo sapiens, UniProt Q96Q40); conditions: 35 at 1 µM; read-out: % inhibition
T1 construct: purchased Eurofins DiscoverX (KINOMEscan)
Experimental: (§1) KinomeScan Assay on 35 was performed as previously described at EuroFins DiscoverX (Fremont, CA, USA).

ANKK1 = biological target: T2, ANKK1 (Homo sapiens, UniProt Q8NFD2); conditions: 35 at 1 µM; read-out: % inhibition
T2 construct: purchased Eurofins DiscoverX (KINOMEscan)
Experimental: as §1

TESK1 = biological target: T3, TESK1 (Homo sapiens, UniProt Q15569); conditions: 35 at 1 µM; read-out: % inhibition
T3 construct: purchased Eurofins DiscoverX (KINOMEscan)
T3 sequence (Q15569 whole entry): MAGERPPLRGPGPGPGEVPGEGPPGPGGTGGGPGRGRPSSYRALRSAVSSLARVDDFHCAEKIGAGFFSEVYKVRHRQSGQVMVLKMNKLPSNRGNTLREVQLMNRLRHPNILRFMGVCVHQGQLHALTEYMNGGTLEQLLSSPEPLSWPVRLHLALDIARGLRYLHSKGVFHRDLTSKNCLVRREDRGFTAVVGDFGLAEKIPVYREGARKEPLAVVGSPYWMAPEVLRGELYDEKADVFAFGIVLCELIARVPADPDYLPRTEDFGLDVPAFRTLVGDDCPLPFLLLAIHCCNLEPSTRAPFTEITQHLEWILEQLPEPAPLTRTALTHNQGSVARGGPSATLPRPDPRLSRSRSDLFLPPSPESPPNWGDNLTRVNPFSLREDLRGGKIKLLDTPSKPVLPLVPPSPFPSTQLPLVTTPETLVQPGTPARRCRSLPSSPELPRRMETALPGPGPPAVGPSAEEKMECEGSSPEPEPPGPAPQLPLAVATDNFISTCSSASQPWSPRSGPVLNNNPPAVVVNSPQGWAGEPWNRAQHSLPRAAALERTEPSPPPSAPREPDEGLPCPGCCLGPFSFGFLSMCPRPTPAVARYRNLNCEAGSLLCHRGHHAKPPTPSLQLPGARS
Experimental: as §1

[1] = biological target: T4, RPS6KA4(Kin.Dom.2-C-terminal) (Homo sapiens, UniProt O75676); conditions: 35 at 1 µM; read-out: % inhibition
T4 construct: RPS6KA4(Kin.Dom.2-C-terminal); purchased Eurofins DiscoverX (KINOMEscan)
Experimental: as §1

PHKG2 = biological target: T5, PHKG2 (Homo sapiens, UniProt P15735); conditions: 35 at 1 µM; read-out: % inhibition
T5 construct: purchased Eurofins DiscoverX (KINOMEscan)
Experimental: as §1

EPHA6 = biological target: T6, EPHA6 (Homo sapiens, UniProt Q9UF33); conditions: 35 at 1 µM; read-out: % inhibition
T6 construct: purchased Eurofins DiscoverX (KINOMEscan)
T6 sequence (Q9UF33 23-1036): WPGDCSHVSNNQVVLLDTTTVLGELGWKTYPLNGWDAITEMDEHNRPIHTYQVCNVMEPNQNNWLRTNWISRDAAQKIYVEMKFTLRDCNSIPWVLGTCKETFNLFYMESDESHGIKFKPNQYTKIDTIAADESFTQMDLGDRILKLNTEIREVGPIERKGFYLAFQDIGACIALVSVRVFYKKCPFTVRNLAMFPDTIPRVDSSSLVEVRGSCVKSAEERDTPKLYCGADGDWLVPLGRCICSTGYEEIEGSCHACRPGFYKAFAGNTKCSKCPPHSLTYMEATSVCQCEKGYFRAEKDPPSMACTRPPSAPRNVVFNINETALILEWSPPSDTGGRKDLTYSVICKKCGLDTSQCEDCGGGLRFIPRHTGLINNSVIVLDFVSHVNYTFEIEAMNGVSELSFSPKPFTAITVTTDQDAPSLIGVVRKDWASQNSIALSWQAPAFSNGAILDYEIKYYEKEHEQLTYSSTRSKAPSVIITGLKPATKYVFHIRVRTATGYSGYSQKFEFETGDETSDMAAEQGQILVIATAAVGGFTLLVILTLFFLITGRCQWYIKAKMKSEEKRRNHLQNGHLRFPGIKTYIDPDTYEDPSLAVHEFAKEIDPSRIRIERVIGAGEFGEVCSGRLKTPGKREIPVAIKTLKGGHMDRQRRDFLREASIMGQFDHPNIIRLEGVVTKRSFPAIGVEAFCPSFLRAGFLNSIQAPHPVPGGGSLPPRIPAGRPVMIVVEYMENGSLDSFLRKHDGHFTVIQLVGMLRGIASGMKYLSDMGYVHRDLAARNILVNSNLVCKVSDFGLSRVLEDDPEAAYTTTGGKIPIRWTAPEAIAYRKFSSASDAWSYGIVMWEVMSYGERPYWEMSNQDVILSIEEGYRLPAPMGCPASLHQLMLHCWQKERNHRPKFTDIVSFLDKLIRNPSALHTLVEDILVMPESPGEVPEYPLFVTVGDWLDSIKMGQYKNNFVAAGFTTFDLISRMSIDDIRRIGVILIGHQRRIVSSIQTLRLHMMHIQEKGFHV
Experimental: as §1

GSK3A = biological target: T7, GSK3A (Homo sapiens, UniProt P49840); conditions: 35 at 1 µM; read-out: % inhibition
T7 construct: purchased Eurofins DiscoverX (KINOMEscan)
Experimental: as §1

CDKL1 = biological target: T8, CDKL1 (Homo sapiens, UniProt Q00532); conditions: 35 at 1 µM; read-out: % inhibition
T8 construct: purchased Eurofins DiscoverX (KINOMEscan)
Experimental: as §1

LATS1 = biological target: T9, LATS1 (Homo sapiens, UniProt O95835); conditions: 35 at 1 µM; read-out: % inhibition
T9 construct: purchased Eurofins DiscoverX (KINOMEscan)
Experimental: as §1

CLK4 = biological target: T10, CLK4 (Homo sapiens, UniProt Q9HAZ1); conditions: 35 at 1 µM; read-out: % inhibition
T10 construct: purchased Eurofins DiscoverX (KINOMEscan)
Experimental: as §1

MAST1 = biological target: T11, MAST1 (Homo sapiens, UniProt Q9Y2H9); conditions: 35 at 1 µM; read-out: % inhibition
T11 construct: purchased Eurofins DiscoverX (KINOMEscan)
Experimental: as §1

EGFR(G719C) = biological target: T12, EGFR(G719C) (Homo sapiens, UniProt P00533, G719C); conditions: 35 at 1 µM; read-out: % inhibition
T12 construct: purchased Eurofins DiscoverX (KINOMEscan)
Experimental: as §1

KIT(V559D,V654A) = biological target: T13, KIT(V559D,V654A) (Homo sapiens, UniProt P10721, V559D/V654A); conditions: 35 at 1 µM; read-out: % inhibition
T13 construct: purchased Eurofins DiscoverX (KINOMEscan)
T13 sequence (P10721 26-976 V559D/V654A): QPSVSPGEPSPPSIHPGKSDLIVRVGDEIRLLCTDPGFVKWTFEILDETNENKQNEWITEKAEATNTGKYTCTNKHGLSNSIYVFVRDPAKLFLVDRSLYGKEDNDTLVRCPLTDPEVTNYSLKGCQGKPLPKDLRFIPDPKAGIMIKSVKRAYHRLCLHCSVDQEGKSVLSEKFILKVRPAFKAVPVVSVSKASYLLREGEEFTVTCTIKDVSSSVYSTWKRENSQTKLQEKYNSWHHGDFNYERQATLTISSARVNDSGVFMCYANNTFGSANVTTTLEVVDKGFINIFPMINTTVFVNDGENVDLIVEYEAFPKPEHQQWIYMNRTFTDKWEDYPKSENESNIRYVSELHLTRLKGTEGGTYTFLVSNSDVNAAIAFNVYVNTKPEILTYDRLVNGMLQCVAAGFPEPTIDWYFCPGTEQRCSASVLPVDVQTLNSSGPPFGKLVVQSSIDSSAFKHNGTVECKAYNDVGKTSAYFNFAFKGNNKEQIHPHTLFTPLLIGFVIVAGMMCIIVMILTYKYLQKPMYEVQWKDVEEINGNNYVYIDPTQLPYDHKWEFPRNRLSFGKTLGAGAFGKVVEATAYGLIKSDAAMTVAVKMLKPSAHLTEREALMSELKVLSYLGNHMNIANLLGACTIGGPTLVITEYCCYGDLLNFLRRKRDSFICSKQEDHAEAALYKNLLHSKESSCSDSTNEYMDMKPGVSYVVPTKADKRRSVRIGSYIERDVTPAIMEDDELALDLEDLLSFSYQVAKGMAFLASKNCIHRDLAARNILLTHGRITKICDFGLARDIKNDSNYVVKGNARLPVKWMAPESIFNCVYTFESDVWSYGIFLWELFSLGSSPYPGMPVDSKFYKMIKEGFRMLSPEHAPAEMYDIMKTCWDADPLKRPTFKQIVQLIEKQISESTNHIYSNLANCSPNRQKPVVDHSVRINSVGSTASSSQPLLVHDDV
Experimental: as §1

GRK7 = biological target: T14, GRK7 (Homo sapiens, UniProt Q8WTQ7); conditions: 35 at 1 µM; read-out: % inhibition
T14 construct: purchased Eurofins DiscoverX (KINOMEscan)
Experimental: as §1

RIPK2 = biological target: T15, RIPK2 (Homo sapiens, UniProt O43353)
T15 construct: purchased Eurofins DiscoverX (KINOMEscan)
T15 sequence (O43353 whole entry): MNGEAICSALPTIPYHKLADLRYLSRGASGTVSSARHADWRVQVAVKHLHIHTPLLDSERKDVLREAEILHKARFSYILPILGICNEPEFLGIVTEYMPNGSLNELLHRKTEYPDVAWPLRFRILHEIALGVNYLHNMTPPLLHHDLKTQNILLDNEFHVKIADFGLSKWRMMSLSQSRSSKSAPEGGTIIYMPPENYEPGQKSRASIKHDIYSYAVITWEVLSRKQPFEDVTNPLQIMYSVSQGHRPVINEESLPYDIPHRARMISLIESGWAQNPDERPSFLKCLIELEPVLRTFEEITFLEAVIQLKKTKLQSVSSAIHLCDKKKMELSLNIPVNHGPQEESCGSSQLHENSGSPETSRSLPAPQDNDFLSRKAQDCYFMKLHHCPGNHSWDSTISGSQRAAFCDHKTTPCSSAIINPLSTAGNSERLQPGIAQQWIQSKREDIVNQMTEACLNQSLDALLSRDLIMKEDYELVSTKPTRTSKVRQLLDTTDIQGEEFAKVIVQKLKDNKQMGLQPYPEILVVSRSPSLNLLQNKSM
Experimental: as §1

MKK7 = biological target: T16, MKK7 (Homo sapiens, UniProt O14733); conditions: 35 at 1 µM; read-out: % inhibition
T16 construct: purchased Eurofins DiscoverX (KINOMEscan)
Experimental: as §1

MET(M1250T) = biological target: T17, MET(M1250T) (Homo sapiens, UniProt P08581, M1250T); conditions: 35 at 1 µM; read-out: % inhibition
T17 construct: purchased Eurofins DiscoverX (KINOMEscan)
Experimental: as §1

BRSK2 = biological target: T18, BRSK2 (Homo sapiens, UniProt Q8IWQ3); conditions: 35 at 1 µM; read-out: % inhibition
T18 construct: purchased Eurofins DiscoverX (KINOMEscan)
Experimental: as §1

PKNB(M.tuberculosis) = biological target: T19, PKNB(M.tuberculosis) (Mycobacterium tuberculosis, UniProt P9WI81); conditions: 35 at 1 µM; read-out: % inhibition
T19 construct: purchased Eurofins DiscoverX (KINOMEscan)
Experimental: as §1

MAP3K2 = biological target: T20, MAP3K2 (Homo sapiens, UniProt Q9Y2U5); conditions: 35 at 1 µM; read-out: % inhibition
T20 construct: purchased Eurofins DiscoverX (KINOMEscan)
Experimental: as §1

ERK8 = biological target: T21, ERK8 (Homo sapiens, UniProt Q8TD08); conditions: 35 at 1 µM; read-out: % inhibition
T21 construct: purchased Eurofins DiscoverX (KINOMEscan)
Experimental: as §1

PIP5K2B = biological target: T22, PIP5K2B (Homo sapiens, UniProt P78356); conditions: 35 at 1 µM; read-out: % inhibition
T22 construct: purchased Eurofins DiscoverX (KINOMEscan)
Experimental: as §1

PRKG1 = biological target: T23, PRKG1 (Homo sapiens, UniProt Q13976); conditions: 35 at 1 µM; read-out: % inhibition
T23 construct: purchased Eurofins DiscoverX (KINOMEscan)
Experimental: as §1

IGF1R = biological target: T24, IGF1R (Homo sapiens, UniProt P08069); conditions: 35 at 1 µM; read-out: % inhibition
T24 construct: purchased Eurofins DiscoverX (KINOMEscan)
Experimental: as §1

PIK3CA(Q546K) = biological target: T25, PIK3CA(Q546K) (Homo sapiens, UniProt P42336, Q546K); conditions: 35 at 1 µM; read-out: % inhibition
T25 construct: purchased Eurofins DiscoverX (KINOMEscan)
Experimental: as §1

KIT(V559D) = biological target: T26, KIT(V559D) (Homo sapiens, UniProt P10721, V559D); conditions: 35 at 1 µM; read-out: % inhibition
T26 construct: purchased Eurofins DiscoverX (KINOMEscan)
Experimental: as §1

JNK2 = biological target: T27, JNK2 (Homo sapiens, UniProt P45984); conditions: 35 at 1 µM; read-out: % inhibition
T27 construct: purchased Eurofins DiscoverX (KINOMEscan)
Experimental: as §1

MTOR = biological target: T28, MTOR (Homo sapiens, UniProt P42345); conditions: 35 at 1 µM; read-out: % inhibition
T28 construct: purchased Eurofins DiscoverX (KINOMEscan)
Experimental: as §1

ERK1 = biological target: T29, ERK1 (Homo sapiens, UniProt P27361); conditions: 35 at 1 µM; read-out: % inhibition
T29 construct: purchased Eurofins DiscoverX (KINOMEscan)
T29 sequence (P27361 whole entry): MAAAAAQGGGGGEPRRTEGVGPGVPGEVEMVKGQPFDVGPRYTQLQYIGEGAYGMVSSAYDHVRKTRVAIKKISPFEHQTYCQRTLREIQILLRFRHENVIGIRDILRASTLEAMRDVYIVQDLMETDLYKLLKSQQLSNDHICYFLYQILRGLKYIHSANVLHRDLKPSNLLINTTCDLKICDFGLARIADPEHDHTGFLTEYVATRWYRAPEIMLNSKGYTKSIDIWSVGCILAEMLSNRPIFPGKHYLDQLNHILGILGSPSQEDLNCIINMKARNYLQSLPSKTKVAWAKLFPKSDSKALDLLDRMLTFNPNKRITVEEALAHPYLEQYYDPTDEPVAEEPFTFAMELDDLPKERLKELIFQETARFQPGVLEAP
Experimental: as §1

GSK3B = biological target: T30, GSK3B (Homo sapiens, UniProt P49841); conditions: 35 at 1 µM; read-out: % inhibition
T30 construct: purchased Eurofins DiscoverX (KINOMEscan)
T30 sequence (P49841 whole entry): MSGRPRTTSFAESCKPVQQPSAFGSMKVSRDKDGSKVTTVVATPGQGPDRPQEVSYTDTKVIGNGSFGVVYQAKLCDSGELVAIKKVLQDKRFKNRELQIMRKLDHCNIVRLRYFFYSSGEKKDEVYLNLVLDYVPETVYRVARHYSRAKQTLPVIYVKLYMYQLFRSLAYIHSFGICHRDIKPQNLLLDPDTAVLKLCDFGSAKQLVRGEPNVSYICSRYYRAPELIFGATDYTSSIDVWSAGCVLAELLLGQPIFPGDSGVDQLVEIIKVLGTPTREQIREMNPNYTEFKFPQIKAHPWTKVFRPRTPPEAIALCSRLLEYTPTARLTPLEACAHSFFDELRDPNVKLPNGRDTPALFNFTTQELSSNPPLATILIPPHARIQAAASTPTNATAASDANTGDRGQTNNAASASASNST
Experimental: as §1

SIK2 = biological target: T31, SIK2 (Homo sapiens, UniProt Q9H0K1); conditions: 35 at 1 µM; read-out: % inhibition
T31 construct: purchased Eurofins DiscoverX (KINOMEscan)
Experimental: as §1

HIPK4 = biological target: T32, HIPK4 (Homo sapiens, UniProt Q8NE63); conditions: 35 at 1 µM; read-out: % inhibition
T32 construct: purchased Eurofins DiscoverX (KINOMEscan)
Experimental: as §1

[2] = biological target: T33, RPS6KA4(Kin.Dom.1-N-terminal) (Homo sapiens, UniProt O75676); conditions: 35 at 1 µM; read-out: % inhibition
T33 construct: RPS6KA4(Kin.Dom.1-N-terminal); purchased Eurofins DiscoverX (KINOMEscan)
Experimental: as §1

CDKL5 = biological target: T34, CDKL5 (Homo sapiens, UniProt O76039); conditions: 35 at 1 µM; read-out: % inhibition
T34 construct: purchased Eurofins DiscoverX (KINOMEscan)
Experimental: as §1

TSSK3 = biological target: T35, TSSK3 (Homo sapiens, UniProt Q96PN8); conditions: 35 at 1 µM; read-out: % inhibition
T35 construct: purchased Eurofins DiscoverX (KINOMEscan)
Experimental: as §1

FYN = biological target: T36, FYN (Homo sapiens, UniProt P06241); conditions: 35 at 1 µM; read-out: % inhibition
T36 construct: purchased Eurofins DiscoverX (KINOMEscan)
T36 sequence (P06241 whole entry): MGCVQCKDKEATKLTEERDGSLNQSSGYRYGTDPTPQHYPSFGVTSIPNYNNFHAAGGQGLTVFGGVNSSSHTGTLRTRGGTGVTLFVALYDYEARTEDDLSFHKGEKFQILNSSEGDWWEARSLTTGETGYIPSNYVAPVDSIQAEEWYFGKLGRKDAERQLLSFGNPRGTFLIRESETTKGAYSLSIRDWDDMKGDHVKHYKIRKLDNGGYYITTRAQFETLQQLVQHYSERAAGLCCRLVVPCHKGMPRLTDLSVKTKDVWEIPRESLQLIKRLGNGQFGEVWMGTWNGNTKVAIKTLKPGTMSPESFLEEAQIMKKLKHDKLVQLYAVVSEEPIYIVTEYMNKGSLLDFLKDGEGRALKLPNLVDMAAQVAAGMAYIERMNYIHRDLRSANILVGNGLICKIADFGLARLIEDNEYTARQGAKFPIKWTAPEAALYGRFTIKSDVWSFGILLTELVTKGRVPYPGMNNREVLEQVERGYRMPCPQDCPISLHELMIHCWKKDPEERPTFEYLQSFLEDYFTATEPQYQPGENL
Experimental: as §1

CAMK1G = biological target: T37, CAMK1G (Homo sapiens, UniProt Q96NX5); conditions: 35 at 1 µM; read-out: % inhibition
T37 construct: purchased Eurofins DiscoverX (KINOMEscan)
Experimental: as §1

CAMK2G = biological target: T38, CAMK2G (Homo sapiens, UniProt Q13555); conditions: 35 at 1 µM; read-out: % inhibition
T38 construct: purchased Eurofins DiscoverX (KINOMEscan)
T38 sequence (Q13555 whole entry): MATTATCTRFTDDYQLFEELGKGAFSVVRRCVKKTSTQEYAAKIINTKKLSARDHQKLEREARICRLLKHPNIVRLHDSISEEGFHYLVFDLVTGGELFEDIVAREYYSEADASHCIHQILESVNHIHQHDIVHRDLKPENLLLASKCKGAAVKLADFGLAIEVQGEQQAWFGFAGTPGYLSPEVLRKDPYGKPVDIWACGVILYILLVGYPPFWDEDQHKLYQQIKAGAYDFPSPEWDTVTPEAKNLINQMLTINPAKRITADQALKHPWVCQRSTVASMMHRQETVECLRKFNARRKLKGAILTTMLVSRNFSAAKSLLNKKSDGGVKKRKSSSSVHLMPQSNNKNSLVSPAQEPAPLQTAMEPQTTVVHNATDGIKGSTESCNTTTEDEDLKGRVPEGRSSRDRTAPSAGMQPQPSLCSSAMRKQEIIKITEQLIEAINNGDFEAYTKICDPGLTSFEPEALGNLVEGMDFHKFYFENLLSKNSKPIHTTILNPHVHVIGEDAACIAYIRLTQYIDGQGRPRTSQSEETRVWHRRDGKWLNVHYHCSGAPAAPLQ
Experimental: as §1

PKN1 = biological target: T39, PKN1 (Homo sapiens, UniProt Q16512); conditions: 35 at 1 µM; read-out: % inhibition
T39 construct: purchased Eurofins DiscoverX (KINOMEscan)
Experimental: as §1

IRAK1 = biological target: T40, IRAK1 (Homo sapiens, UniProt P51617); conditions: 35 at 1 µM; read-out: % inhibition
T40 construct: purchased Eurofins DiscoverX (KINOMEscan)
Experimental: as §1

PAK6 = biological target: T41, PAK6 (Homo sapiens, UniProt Q9NQU5); conditions: 35 at 1 µM; read-out: % inhibition
T41 construct: purchased Eurofins DiscoverX (KINOMEscan)
Experimental: as §1

SGK = biological target: T42, SGK (Homo sapiens, UniProt O00141); conditions: 35 at 1 µM; read-out: % inhibition
T42 construct: purchased Eurofins DiscoverX (KINOMEscan)
Experimental: as §1

Brc1ccc2nccc(Nc3ccc4cn[nH]c4c3)c2c1 [Compound 35, 6-Bromo-N-(1H-indazol-6-yl)quinolin-4-amine]
activity at 1 µM (PFTAIRE2): 100% | activity at 1 µM (ANKK1): 100% | activity at 1 µM (TESK1): 100% | activity at 1 µM [1]: 100% | activity at 1 µM (PHKG2): 95% | activity at 1 µM (EPHA6): 100% | activity at 1 µM (GSK3A): 100% | activity at 1 µM (CDKL1): 47% | activity at 1 µM (LATS1): 100% | activity at 1 µM (CLK4): 100% | activity at 1 µM (MAST1): 100% | activity at 1 µM (EGFR(G719C)): 83% | activity at 1 µM (KIT(V559D,V654A)): 100% | activity at 1 µM (GRK7): 100% | activity at 1 µM (RIPK2; 35 at 1 µM, read-out: % inhibition): 29% | inhibition at 1 µM (RIPK2; KinomeScan, screened at 1 μM, read-out: kinases inhibited at 1 μM: RIPK2): 71% | activity at 1 µM (MKK7): 100% | activity at 1 µM (MET(M1250T)): 100% | activity at 1 µM (BRSK2): 100% | activity at 1 µM (PKNB(M.tuberculosis)): 77% | activity at 1 µM (MAP3K2): 100% | activity at 1 µM (ERK8): 100% | activity at 1 µM (PIP5K2B): 100% | activity at 1 µM (PRKG1): 100% | activity at 1 µM (IGF1R): 100% | activity at 1 µM (PIK3CA(Q546K)): 100% | activity at 1 µM (KIT(V559D)): 100% | activity at 1 µM (JNK2): 100% | activity at 1 µM (MTOR): 100% | activity at 1 µM (ERK1): 100% | activity at 1 µM (GSK3B): 97% | activity at 1 µM (SIK2): 97% | activity at 1 µM (HIPK4): 57% | activity at 1 µM [2]: 100% | activity at 1 µM (CDKL5): 100% | activity at 1 µM (TSSK3): 77% | activity at 1 µM (FYN): 100% | activity at 1 µM (CAMK1G): 100% | activity at 1 µM (CAMK2G): 100% | activity at 1 µM (PKN1): 100% | activity at 1 µM (IRAK1): 100% | activity at 1 µM (PAK6): 100% | activity at 1 µM (SGK): 100%
